Laboratory results taken from article PMC11727121, “Intrinsic PD‐L1 Degradation Induced by a Novel Self‐Assembling Hexapeptide for Enhanced Cancer Immunotherapy” (Advanced Science, 2024).
Square brackets hold non-standard residues; d marks the D form. Ends that are not written are not given here. Peptide text beside a SMILES is read from it. Met(O) = CS(=O)CC[C@H](N)C(=O)O

Legend:
4T1 cells [1] = experiment: MTT cytotoxicity assay, 4T1 cells; type: cell-based, mouse; settings: 24 h
Method: (§1) In Vitro Cell Cytotoxicity and Cell Apoptosis Assay
(§2) The cytotoxicity of KFM and KFMo were assessed as follows. Briefly, 4T1, MC38 and HUVEC cells were seeded on 96-well plate (5000 cells per well) overnight.
(§3) The cells were incubated with 100 µL fresh DMEM containing with various concentration of for 24 h, respectively. Moreover, the 4T1 and MC38 tumor cells co- […]
(§4) cells viability was evaluated using the MTT assay.
(§5) Subsequently, the cells at a density of 1 × 104 were cultivated into 96-well plate and then cultured with or without H2O2 (5 µM or 100 µM) for 24 h. The cells viability was evaluated using the MTT assay. […]

MC38 cells = experiment: MTT cytotoxicity assay, MC38 cells; type: cell-based, mouse; settings: 24 h
Method: as §1, §2, §3, §4, §5

HUVEC cells = experiment: MTT cytotoxicity assay, HUVEC cells; type: cell-based, Human; settings: 24 h
Method: as §1, §2, §3, §4, §5

PD-L1 [2] = experiment: Western blot analysis of PD-L1 expression in 4T1 cells; type: cell-based, mouse
Method: (§6) In vitro Immunogenic Cell Death Assay […]
(§7) presence of DAMPs within indicated treatments were examined by calreticulin (CRT) and high mobility group box 1 protein (HMGB1) expression level. Firstly, 5 × 104 […]
(§8) And then, fixed with 4% formaldehyde for 30 min at room temperature, and washed twice with PBS. A blocking solution of 10% goat serum was added to the wells and incubated for 50 min to minimize nonspecific antibody adsorption. The cells were treated with primary antibodies overnight at 4 ℃, subsequently, stained with FITC -labeled secondary antibodies for 2 h, followed by mounting solution with DAPI, images captured by fluorescence microscopy (Leica DMI3000B). The fluorescence intensity was analyzed using Image J.
(§9) Western Blotting Analysis
(§10) Cellular proteins were extracted with the lysis buffer containing 8 M urea, 0.05 M Tris-HCl (pH 7.5), 1% β-Mercaptoethanol, 1% protease inhibitor, and 1% phosphatase inhibitor, while tumor protein was extracted with the medium RIPA lysis buffer containing 1% protease inhibitor and 1% phosphatase inhibitors by 1-minute ultrasonication, then kept on ice for 30 minutes and microcentrifugated at 12,000 g for 15 minutes at 4 ℃ to remove debris. Immunoblotting was performed using 30 µg and 50 μg of protein lysates from cells and tumors, respectively . […]

PD-L1 [3] = experiment: Western blot analysis of PD-L1 expression in MC38 cells; type: cell-based, mouse; settings: compared to PBS control
Method: as §6, §7, §8, §9, §10

4T1 cells [4] = experiment: Cell apoptosis assay by flow cytometry (Annexin V / PI); type: cell-based, mouse; settings: 24 h, 5 µM MTX or equivalent, absence of H2O2
Method: In Vitro Cell Cytotoxicity and Cell Apoptosis Assay […]
plates at a density of 2 × 10^5 cells/well.
Following incubation, all cells were harvested and
stained with Annexin V and propidium iodide (PI) according to the manufacturer's
protocol. Apoptosis was immediately analyzed using flow cytometry.

4T1 cells [5] = experiment: In vitro immunogenic cell death assay (CRT, HMGB1); type: cell-based, mouse; settings: 12 h, fluorescence staining
Method: as §6, §7, §8, §9, §10

MC38 tumor = experiment: In vivo antitumor study in MC38 tumor-bearing mice; settings: MC38 model, peritumoral, MTX 1.5 mg/kg, MET 69.5 mg/kg equivalents, day 0 and 3, n = 5

## C[S+]([O-])CC[C@H](NC(=O)[C@H](Cc1ccccc1)NC(=O)[C@H](CC[S+](C)[O-])NC(=O)[C@H](Cc1ccccc1)NC(=O)[C@@H](N)CCCCN)C(=O)N[C@@H](CCCCN)C(N)=O (stereo partly shown) [KFM°] (H-KF[Met(O)]F[Met(O)]K-NH2)
4T1 cells [1]
  cytotoxicity of peptide (MTT): negligible cytotoxicity
MC38 cells
  cytotoxicity of peptide (MTT): negligible cytotoxicity
HUVEC cells
  cytotoxicity of peptide (MTT): negligible cytotoxicity

## CN(C)C(=N)N=C(N)N [MET, metformin]
PD-L1 [2]
  PD-L1 expression (Western blot), in words: reduced
PD-L1 [3]
  PD-L1 expression (Western blot), in words: reduced

## O=C1c2c(O)ccc(O)c2C(=O)c2c(NCCNCCO)ccc(NCCNCCO)c21 [MTX, mitoxantrone]
4T1 cells [1]; without H2O2
  cytotoxicity of MTX formulations (MTT): dose‐dependent cytotoxicity
MC38 cells; without H2O2
  cytotoxicity of MTX formulations (MTT): dose‐dependent cytotoxicity
4T1 cells [4]
  percentage of apoptotic cells: 61.3%
4T1 cells [5]
  CRT expression compared to PBS control, in words: marked increase
MC38 tumor
  tumor growth: partially slowed tumor growth

## KFMFMK-NH2 [KFM, Lys‐Phe‐Met‐Phe‐Met‐Lys]
4T1 cells [1]
  cytotoxicity of peptide (MTT): negligible cytotoxicity
MC38 cells
  cytotoxicity of peptide (MTT): negligible cytotoxicity
HUVEC cells
  cytotoxicity of peptide (MTT): negligible cytotoxicity
